According to patent US7807673B2, “2-pyrimidinyl pyrazolopyridine ErbB kinase inhibitors” (GlaxoSmithKline LLC, priority 2005, dated 2010):

Tests used:
ErbB2 or EGFR = biological target: T1, ErbB2 or EGFR; assay: ErbB enzyme substrate phosphorylation assay (HTRF), Method B (enzyme pre-incubated with compound 1 hour); assay type: biochemical; details: Table 1, enzyme Method B: enzyme mix incubated with compound 1 hour at 20° C., reaction started with substrate mix; class over ErbB2 or EGFR
T1 construct: enzymes purified from a baculovirus expression system
Method: Compounds of the present invention were tested for EGFR, ErbB-2, and ErbB-4 protein tyrosine kinase inhibitory activity in substrate phosphorylation assays using enzymes purified from a baculovirus expression system. Reagent production was conducted essentially as described in Brignola, P. S., et al, (2002) J. Biol. Chem. 277(2): 1576-1585.
The method measures the ability of the isolated enzyme to catalyse the transfer of the gamma-phosphate from ATP onto the tyrosine residue of a biotinylated synthetic peptide referenced “Peptide C” in Brignola, P. S., et al, (2002) J. Biol. Chem. 277(2):1576-1585. The extent of tyrosine phosphorylation was measured using an anti-phosphotyrosine antibody, and quantified by homogenous time-resolved fluorescence (HTRF).
Reactions were performed in black 384-well polystyrene flat-bottom plates in a final volume of 20 μl. Assays were performed by adding 10 μl of each of the following solutions, substrate Mix and enzyme mix: The Substrate mix contained 100 mM 3-[N-morpholino]propanesulfonic acid (MOPS) (pH 7.5), 2 mM MnCl2, 20 μM ATP, 0.01% Tween-20, 0.1 mg/mL (BSA), 0.8 uM peptide substrate, and 1 mM dithiothreitol. The enzyme mix contained 100 mM MOPS (pH7.5); 0.01% Tween-20; 0.1 mg/mL BSA, and either 0.8 nM EGFR, 10 nM ErbB2, or 1 nM ErbB4
During the course of these studies, two separate methods have been used to measure the potency of compounds. In Method A, the substrate mix was added to the compound plates first, then the reaction was started by adding the enzyme mix. In Method B, the enzyme mix was added to the compound plates and the plates were incubated at 20° C. for 1 hour. The reactions were then started by adding the substrate mix.
After initiating the reaction with either method describe above, the reactions were allowed to proceed for 90 minutes at 20° C. The reactions were then terminated by the addition of 20 μl 100 mM EDTA to each well. 40 μl/well of HTRF detection mix were added to the assay plates. The final concentrations of the detection reagents were: 100 mM HEPES (pH7.5), 0.1 mg/mL BSA, 15 nM streptavidin-labeled allophycocyanin (PerkinElmer), and 1 nM europium-labeled anti-phosphotyrosine antibody (PerkinElmer). Assay plates were left unsealed and were counted in a Wallac Multilabel Counter 1420 (PerkinElmer).
Compounds under analysis were dissolved in Me2SO to 1.0 mM and serially diluted 1 to 3 with Me2SO through twelve dilutions. 1 μl of each concentration was transferred to the corresponding well of an assay plate. This creates a final compound concentration range from 0.00027 to 47.6 μM.
The data for dose responses were plotted as % Inhibition calculated with the data reduction formula 100*(1−(U1−C2)/(C1−C2)) versus concentration of compound where U is the unknown value, C1 is the average control value obtained for 4.76% DMSO, and C2 is the average control value obtained for 0.035 M EDTA. Data were fitted with a curve described by: y=((Vmax*x)/(K+x))+Y2 where Vmax is the upper asymptote, Y2 is the Y intercept, and K is the IC50. The results for each compound were recorded as pIC50s, calculated as follows: pIC50=−Log 10(K)

[1] = test system: BT474 and HN5 tumor cell lines; assay: Celltiter Glo growth inhibition assay (cellular Method B); assay type: cell-based; details: Homo sapiens, BT-474, 72 h; Table 2, Method B Celltiter Glo, 3 days; class over BT474 and HN5;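 further: class counts the more potent of the two cell lines (BT474 or HN5)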
Method: (§1) Human breast tumor cells (BT474) were cultured in RPMI, (Invitrogen, 22400) containing 10% fetal bovine serum (FBS). Human head and neck tumor cells (HN5) were cultured in low glucose DMEM (Invitrogen, 12320) containing 10% FBS. Human colon tumor cells (Colo205) were cultured in DMEM (Invitrogen, 10564) containing 10% FBS. All cell lines were maintained at 37° C. in a humidified 5% CO2, 95% air incubator. Cells were harvested using trypsin/EDTA, counted using a haemocytometer, and plated in 30 microliters of the appropriate media described above, at the following densities, in a half area, black-walled, 96-well tissue culture plate (Corning 3882): BT474 3,000 cells/well, HN5 500 cells/well and Colo205 cells, 3,000 cells/well. The next day, compounds were diluted in DMEM containing 100 mg/ml gentamicin, from 10 mM stock solutions in DMSO. 30 microliters/well of these dilutions were added to the 30 microliters/well of media currently on the cell plates. Medium containing 0.6% DMSO was added to control wells. The final concentration of DMSO in all wells was 0.3%. Cells were incubated at 37° C., 5% CO2 for 3 days. Cell biomass was estimated using Celltiter Glo (Promega G7571). Briefly, plates were removed from the incubator and allowed to equilibrate to rt for 30 minutes. 60 microliters of Celltiter Glo reagent were added to each well of the treated cells and plates were shaken on an orbital plate shaker for 2 min. Plates were incubated without shaking for 30 more min and read in a luminometer with an integration time of 0.5 seconds per well. Percent inhibition of cell growth was calculated relative to vehicle treated control wells. Concentration of compound that inhibits 50% of vehicle control cell growth (IC50) was interpolated using nonlinear regression (Levenberg-Marquardt) and the equation, y=Vmax*(1−(x/(K+x)))+Y2, where “K” was equal to the IC50.

Colo205 tumor cell lines = assay: as above; assay type: cell-based; details: Homo sapiens, COLO 205, 72 h, Table 3, Method B Celltiter Glo, 3 days
Method: as §1

IC50 [1] | IC50 (Colo205 tumor cell lines) | SMILES | Activity (Method) (ErbB2 or EGFR)
0.1 to 1 µM | 0.1 to 1 µM | CS(=O)(=O)CCNCc1cccc(Nc2nccc(-c3c(-c4cccc(NC(=O)Cc5cccs5)c4)nn4ccccc34)n2)c1 [Example 41, N-{3-[3-(2-{[3-({[2-(Methylsulfonyl)ethyl]amino}methyl)phenyl]-amino}-4-pyrimidinyl)pyrazolo[1,5-a]pyridin-2-yl]phenyl}-2-(2-thienyl)acetamide] | +++ (B) (at least one pIC50 measurement of greater than 7 against either ErbB2 or EGFR)
 |  | CC(=O)N1CCN(c2ccc(Nc3nccc(-c4c(-c5cccc(NC(=O)Cc6cccs6)c5)nn5cc(C)ccc45)n3)cc2)CC1 [Example 73, N-{3-[3-(2-{[4-(4-Acetyl-1-piperazinyl)phenyl]amino}-4-pyrimidinyl)-6-methylpyrazolo[1,5-a]pyridin-2-yl]phenyl}-2-(2-thienyl)acetamide] | +++ (B) (at least one pIC50 measurement of greater than 7 against either ErbB2 or EGFR)
 |  | COc1ccc(-c2nn3ccccc3c2-c2ccnc(Nc3cc(OCCN(C)C)ccc3C)n2)cc1NC(=O)Cc1cccs1 [Example 66, N-[5-(3-{2-[(5-{[2-(Dimethylamino)ethyl]oxy}-2-methylphenyl)amino]-4-pyrimidinyl}pyrazolo[1,5-a]pyridin-2-yl)-2-(methyloxy)phenyl]-2-(2-thienyl)acetamide] | + (B) (no pIC50 measurement greater than 6 against either ErbB2 or EGFR)
 |  | CN1CCc2ccc(Nc3nccc(-c4c(-c5ccc(F)c(NC(=O)Cc6cccs6)c5)nn5ccccc45)n3)cc2C1 [Example 63, N-[2-Fluoro-5-(3-{2-[(2-methyl-1,2,3,4-tetrahydro-7-isoquinolinyl)amino]-4-pyrimidinyl}pyrazolo[1,5-a]pyridin-2-yl)phenyl]-2-(2-thienyl)acetamide] | +++ (B) (at least one pIC50 measurement of greater than 7 against either ErbB2 or EGFR)
 |  | CN1CCc2ccc(Nc3nccc(-c4c(-c5cccc(NC(=O)Cc6cccs6)c5)nn5ccccc45)n3)cc2C1 [Example 8] | +++ (B) (at least one pIC50 measurement of greater than 7 against either ErbB2 or EGFR)
 |  | COc1ccc(-c2nn3ccccc3c2-c2ccnc(Nc3cccc(OCCN(C)C)c3C)n2)cc1NC(=O)Cc1cccs1 [Example 64, N-[5-(3-{2-[(3-{[2-(Dimethylamino)ethyl]oxy}-2-methylphenyl)amino]-4-pyrimidinyl}pyrazolo[1,5-a]pyridin-2-yl)-2-(methyloxy)phenyl]-2-(2-thienyl)acetamide] | + (B) (no pIC50 measurement greater than 6 against either ErbB2 or EGFR)
0.1 to 1 µM | 0.1 to 1 µM | Cc1ncoc1-c1cccc(Nc2nccc(-c3c(-c4cccc(NC(=O)Cc5cccs5)c4)nn4ccccc34)n2)c1 [Example 52, N-{3-[3-(2-{[3-(4-methyl-1,3-oxazol-5-yl)phenyl]amino}pyrimidin-4-yl)pyrazolo[1,5-a]pyridin-2-yl]phenyl}-2-(2-thienyl)acetamide] | 
 |  | COc1ccc(-c2nn3ccccc3c2-c2ccnc(Nc3cccc(OCCN(C)C)c3)n2)cc1NC(=O)Cc1cccs1 [Example 65, N-[5-(3-{2-[(3-{[2-(Dimethylamino)ethyl]oxy}phenyl)amino]-4-pyrimidinyl}pyrazolo[1,5-a]pyridin-2-yl)-2-(methyloxy)phenyl]-2-(2-thienyl)acetamide] | + (B) (no pIC50 measurement greater than 6 against either ErbB2 or EGFR)
 |  | COc1ccc2c(-c3ccnc(Nc4cccc(OCCN(C)C)c4)n3)c(-c3cccc(NC(=O)/C=C/c4ccccc4)c3)nn2c1 [Example 68, (2E)-N-{3-[3-{2-[(3-{[2-(Dimethylamino)ethyl]oxy}phenyl)amino]-4-pyrimidinyl}-6-(methyloxy)pyrazolo[1,5-a]pyridin-2-yl]phenyl}-3-phenyl-propenamide] | +++ (B) (at least one pIC50 measurement of greater than 7 against either ErbB2 or EGFR)
 |  | COc1ccc2c(-c3ccnc(Nc4cccc(OCCN(C)C)c4)n3)c(-c3cccc(NC(=O)C4(c5ccccc5)CC4)c3)nn2c1 [Example 67, N-{3-[3-{2-[(3-{[2-(Dimethylamino)ethyl]oxy}phenyl)amino]-4-pyrimidinyl}-6-(methyloxy)pyrazolo[1,5-a]pyridin-2-yl]phenyl}-1-phenylcyclopropanecarboxamide] | ++ (B) (at least one pIC50 measurement greater than 6 against either ErbB2 or EGFR but no measurement greater than pIC50 of 7)
 |  | Cc1ccc2c(-c3ccnc(Nc4cccc(CN5CCCC5)c4)n3)c(-c3cccc(NC(=O)Cc4cccs4)c3)nn2c1 [Example 71, N-{3-[6-Methyl-3-(2-{[3-(1-pyrrolidinylmethyl)phenyl]amino}-4-pyrimidinyl)pyrazolo[1,5-a]pyridin-2-yl]-phenyl}-2-(2-thienyl)acetamide] | +++ (B) (at least one pIC50 measurement of greater than 7 against either ErbB2 or EGFR)
 |  | Cc1c(Nc2nccc(-c3c(-c4ccc(F)c(NC(=O)Cc5cccs5)c4)nn4ccccc34)n2)cccc1OCCN(C)C [Example 60, N-[5-(3-{2-[(3-{[2-(Dimethylamino)ethyl]oxy}-2-methylphenyl)amino]-4-pyrimidinyl}pyrazolo[1,5-a]pyridin-2-yl)-2-fluorophenyl]-2-(2-thienyl)acetamide] | ++ (B) (at least one pIC50 measurement greater than 6 against either ErbB2 or EGFR but no measurement greater than pIC50 of 7)
 |  | COc1ccc2c(-c3ccnc(Nc4cccc(OCCN(C)C)c4)n3)c(-c3cccc(NC(=O)NCc4ccc(F)cc4)c3)nn2c1 [Example 70, N-{3-[3-{2-[(3-{[2-(Dimethylamino)ethyl]oxy}phenyl)amino]-4-pyrimidinyl}-6-(methyloxy)pyrazolo[1,5-a]pyridin-2-yl]phenyl}-N-[(4-fluorophenyl)methyl]urea] | +++ (B) (at least one pIC50 measurement of greater than 7 against either ErbB2 or EGFR)
 |  | Cc1ccc2c(-c3ccnc(Nc4cccc(OCCN(C)C)c4)n3)c(-c3cccc(NC(=O)Cc4cccs4)c3)nn2c1 [Example 72, N-[3-(3-{2-[(3-{[2-(Dimethylamino)ethyl]oxy}phenyl)amino]-4-pyrimidinyl}-6-methylpyrazolo[1,5-a]pyridin-2-yl)phenyl]-2-(2-thienyl)acetamide] | +++ (B) (at least one pIC50 measurement of greater than 7 against either ErbB2 or EGFR)
